The text below walks through data of US8173631B2, “Cyclic amine compounds” (Daiichi Sankyo Company, Limited, priority 2008, dated 2012).

In this assay the target is T1, human calcium-sensing receptor (CaSR) (Homo sapiens, UniProt P41180).
T1 construct: expressed in transfected cells
T1 sequence (P41180 20-1078): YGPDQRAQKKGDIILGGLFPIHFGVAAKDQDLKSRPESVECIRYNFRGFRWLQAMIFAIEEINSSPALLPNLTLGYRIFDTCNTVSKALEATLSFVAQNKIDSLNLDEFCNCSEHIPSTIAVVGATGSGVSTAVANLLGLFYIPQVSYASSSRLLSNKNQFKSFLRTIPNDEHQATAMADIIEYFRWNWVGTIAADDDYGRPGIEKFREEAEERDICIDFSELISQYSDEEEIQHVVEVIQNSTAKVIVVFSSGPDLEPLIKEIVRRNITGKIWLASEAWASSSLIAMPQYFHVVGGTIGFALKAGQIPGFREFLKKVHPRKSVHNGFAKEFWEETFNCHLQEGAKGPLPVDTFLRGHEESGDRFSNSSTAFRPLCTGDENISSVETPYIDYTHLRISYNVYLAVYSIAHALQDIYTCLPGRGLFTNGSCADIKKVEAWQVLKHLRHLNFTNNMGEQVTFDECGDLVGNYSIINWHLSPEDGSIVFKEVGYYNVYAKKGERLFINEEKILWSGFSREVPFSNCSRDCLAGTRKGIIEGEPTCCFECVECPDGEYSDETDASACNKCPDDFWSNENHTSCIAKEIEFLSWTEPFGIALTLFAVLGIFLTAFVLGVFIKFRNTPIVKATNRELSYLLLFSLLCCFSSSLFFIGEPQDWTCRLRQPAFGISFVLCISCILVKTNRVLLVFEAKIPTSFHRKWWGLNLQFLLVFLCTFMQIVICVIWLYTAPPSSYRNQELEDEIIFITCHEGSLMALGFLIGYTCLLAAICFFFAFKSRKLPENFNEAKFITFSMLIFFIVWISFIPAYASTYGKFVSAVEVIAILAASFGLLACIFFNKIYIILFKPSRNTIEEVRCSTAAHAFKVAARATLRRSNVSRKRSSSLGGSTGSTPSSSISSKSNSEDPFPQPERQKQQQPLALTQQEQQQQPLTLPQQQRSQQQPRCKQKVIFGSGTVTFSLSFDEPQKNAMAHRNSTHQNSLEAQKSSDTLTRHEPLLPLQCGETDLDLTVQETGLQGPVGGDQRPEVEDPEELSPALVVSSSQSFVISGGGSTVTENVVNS
In words: Inhibitory activity on calcium-sensing receptor (CaSR), intracellular calcium increase as indicator (FLIPR, CHO/hCaSR). The assay is classed as cell-based. The settings on record: CHO cells stably expressing human CaSR; inhibition of intracellular Ca increase induced by extracellular CaCl2. As for the experimental part:
Evaluation of inhibitory activity on calcium-sensing receptor (CaSR) using intracellular calcium increase as an indicator
The preparation which is prepared by adding CHO/hCaSR to F12 medium (manufactured by Invitrogen) containing 10% fetal bovine serum to have 2×10^5 cells/mL was applied to a 384-well in an amount of 50 μL/well, and then incubated overnight in a CO2 incubator. The culture supernatant was completely removed, the assay buffer (20 mM HEPES, HBSS (Ca and Mg free) containing 2.5 mM probenecid, pH 7.4) containing Calcium 3 (manufactured by Molecular Devices), i.e., a fluorescent intracellular calcium indicator, was added thereto in an amount of 25 μL/well, and the mixture was maintained for 1 hour in a CO2 incubator. Meanwhile, Calcium 3 was prepared according to the protocol enclosed in FLIPR Calcium 3 Assay Kit (manufactured by Molecular Devices). After maintaining it for 1 hour, a solution in which the test compound is prepared to have 2.1 to 20,000 nM (final concentration of 1.05 to 10,000 nM) by an assay buffer was added thereto in an amount of 25 μL/well, and maintained for 15 minutes in a CO2 incubator. Then, the CaCl2 solution prepared to have […] by using the assay buffer was added in an amount of 25 μL/well, and the resulting intracellular Ca increase (i.e., fluorescence intensity) was measured over time using a fluorescence imaging plate reader (FLIPR, manufactured by Molecular Devices). From the data obtained, the difference between the fluorescence intensity before the addition of CaCl2 solution and the maximum fluorescence intensity after the addition of CaCl2 solution was calculated, and the 50% inhibition concentration (IC50) of the test compound was obtained.
On the technique in general: Calcium assays in cells follow changes in intracellular calcium, usually with a dye or a luminescent sensor.

A word on the IC50: it is the concentration needed to halve the response being measured. For the compound `CCC[C@@H](OC[C@H](O)CN1CCC[C@H]1Cc1ccc(C)c(F)c1)c1cc(F)ccc1CCC(=O)O` [Example 61], the IC50 was at most 3.27 µM.
For the compound `CCC[C@@H](OC[C@H](O)CN1CCC[C@H]1Cc1ccc(C)c(F)c1)c1cccc(C)c1CCC(=O)O` [Example 62], the IC50 was at most 3.29 µM.
On to `CCC[C@@H](OC[C@H](O)CN1CCC[C@H]1Cc1ccc(C)c(F)c1)c1cccc(F)c1CCC(=O)O` [Example 63], for which the IC50 was at most 3.27 µM.
Then `CCC[C@@H](OC[C@H](O)CN1CCC[C@H]1Cc1ccc(C)c(F)c1)c1ccc(C)cc1CCC(=O)O` [Example 64], with at most 3.29 µM.
Then `CCC[C@@H](OC[C@H](O)CN1CCC[C@H]1Cc1ccc(C)c(F)c1)c1cccc(OC)c1CCC(=O)O` [Example 65], with at most 3.19 µM; and `CC[C@@H](OC[C@H](O)CN1CCC[C@H]1Cc1ccc(C)c(F)c1)c1cc(F)c(C)cc1CCC(=O)O` [Example 69], with at most 3.27 µM.
Then `CC[C@@H](OC[C@H](O)CN1CCC[C@H]1Cc1ccc(C)c(F)c1)c1cc(F)c(C)cc1CCCCC(=O)O` [Example 70], with at most 3.09 µM; and `CCOc1cccc([C@@H](C)OC[C@H](O)CN2CCC[C@H]2Cc2ccc(C)c(F)c2)c1CCC(=O)O` [Example 71], with at most 3.28 µM; and `CCOc1cccc([C@@H](C)OC[C@H](O)CN2CCC[C@H]2Cc2ccc(C)c(F)c2)c1CCCCC(=O)O` [Example 72], with at most 3.1 µM.
As for `Cc1ccc(C[C@@H]2CCCN2C[C@@H](O)CO[C@H](C)c2cccc(OC(C)C)c2CCC(=O)O)cc1F` [Example 73], the half-inhibitory concentration (IC50) is at most 3.19 µM.
Under `Cc1ccc(C[C@@H]2CCCN2C[C@@H](O)CO[C@H](C)c2cccc(OC(C)C)c2CCCCC(=O)O)cc1F` [Example 74] stands at most 3.02 µM; under `Cc1ccc(C[C@@H]2CCCN2C[C@@H](O)CO[C@H](C)c2cccc(OC(F)F)c2CCC(=O)O)cc1F` [Example 75], at most 3.14 µM.
Under `Cc1ccc(C[C@@H]2CCCN2C[C@@H](O)CO[C@H](C)c2ccccc2CCCCCC(=O)O)cc1F` [Example 76] stands at most 3.29 µM; under `Cc1ccc(C[C@@H]2CCCN2C[C@@H](O)CO[C@H](C)c2ccccc2CCCCCCC(=O)O)cc1F` [Example 77], at most 3.2 µM.
Consider `Cc1ccc(C[C@@H]2CCCN2C[C@@H](O)CO[C@H](C)c2ccc(Cl)cc2CCC(=O)O)cc1F` [Example 78], for which the IC50 was at most 3.35 µM.
Under `Cc1ccc(C[C@@H]2CCCN2C[C@@H](O)CO[C@H](C)c2cc(Cl)ccc2CCC(=O)O)cc1F` [Example 79] stands at most 3.35 µM.
Consider `Cc1ccc(C[C@@H]2CCCN2C[C@@H](O)CO[C@H](C)c2cccc(Cl)c2CCC(=O)O)cc1F` [Example 80], for which the IC50 is at most 3.35 µM.
On to `Cc1ccc(C[C@@H]2CCCN2C[C@@H](O)CO[C@H](C)c2ccc(Cl)cc2CCCCC(=O)O)cc1F` [Example 81], for which the IC50 is at most 3.16 µM.
For the compound `C[C@@H](OC[C@H](O)CN1CCC[C@H]1Cc1ccc(F)c(Cl)c1)c1ccccc1CCC(=O)O` [Example 83], the IC50 is at most 3.45 µM.
Take `Cc1ccc(C[C@@H]2CCCN2C[C@@H](O)CO[C@H](C)c2ccccc2CCC(=O)O)cc1Cl` [Example 84]: the IC50 was at most 3.48 µM.
Regarding `C[C@@H](OC[C@H](O)CN1CCC[C@H]1Cc1ccc(Cl)c(Cl)c1)c1ccccc1CCC(=O)O` [Example 88], the concentration for half-maximal inhibition (IC50) is at most 3.33 µM.
Then `CCc1cc(C[C@@H]2CCCN2C[C@@H](O)CO[C@H](C)c2ccccc2CCC(=O)O)ccc1Cl` [Example 89], with at most 3.38 µM; and `Cc1ccc(C[C@@H]2CCCN2C[C@@H](O)CO[C@H](C)c2cccc(F)c2CCC(=O)O)cc1Cl` [Example 90], with at most 3.35 µM.
`C[C@@H](OC[C@H](O)CN1CCC[C@H]1Cc1ccc(Cl)c(F)c1)c1cccc(F)c1CCC(=O)O` [Example 91]: the half-inhibitory concentration (IC50) was at most 3.32 µM.
For `C[C@@H](OC[C@H](O)CN1CCC[C@H]1Cc1ccc(Cl)c(Cl)c1)c1cccc(F)c1CCC(=O)O` [Example 92], the IC50 is at most 3.21 µM.
Then `CCc1cc(C[C@@H]2CCCN2C[C@@H](O)CO[C@H](C)c2cccc(F)c2CCC(=O)O)ccc1Cl` [Example 93], with at most 3.25 µM; and `CC[C@@H](OC[C@H](O)CN1CCC[C@H]1Cc1ccc(C)c(F)c1)c1cc(Cl)ccc1CCC(=O)O` [Example 94], with at most 3.25 µM; and `CC[C@@H](OC[C@H](O)CN1CCC[C@H]1Cc1ccc(C)c(F)c1)c1ccc(Cl)cc1CCC(=O)O` [Example 95], with at most 3.25 µM.
With `C[C@@H](OC[C@H](O)CN1CCC[C@H]1Cc1ccc(Cl)c(Cl)c1)c1cc(F)ccc1CCC(=O)O` [Example 96], the half-maximal inhibitory concentration (IC50) was at most 3.21 µM.
Under `Cc1ccc([C@@H](C)OC[C@H](O)CN2CCC[C@H]2Cc2ccc(Cl)c(Cl)c2)c(CCC(=O)O)c1` [Example 97] stands at most 3.24 µM.
For `CCc1cc(C[C@@H]2CCCN2C[C@@H](O)CO[C@H](C)c2ccc(C)cc2CCC(=O)O)ccc1Cl` [Example 98], the IC50 is at most 3.28 µM.
Then `CCc1cc(C[C@@H]2CCCN2C[C@@H](O)CO[C@H](C)c2cc(F)ccc2CCC(=O)O)ccc1Cl` [Example 99], with at most 3.25 µM; and `CC[C@@H](OC[C@H](O)CN1CCC[C@H]1Cc1ccc(Cl)c(Cl)c1)c1ccc(Cl)cc1CCC(=O)O` [Example 100], with at most 3.03 µM.
Turning to `CCc1cc(C[C@@H]2CCCN2C[C@@H](O)CO[C@H](CC)c2ccc(Cl)cc2CCC(=O)O)ccc1Cl` [Example 101], the IC50 is at most 3.06 µM.
Consider `CC[C@@H](OC[C@H](O)CN1CCC[C@H]1Cc1ccc(Cl)c(Cl)c1)c1ccc(C)cc1CCC(=O)O` [Example 102], for which the concentration for half-maximal inhibition (IC50) is at most 3.15 µM.
Take `CCc1cc(C[C@@H]2CCCN2C[C@@H](O)CO[C@H](CC)c2ccc(C)cc2CCC(=O)O)ccc1Cl` [Example 103]: the IC50 is at most 3.19 µM.
Then `CC[C@@H](OC[C@H](O)CN1CCC[C@H]1Cc1ccc(Cl)c(Cl)c1)c1cc(F)ccc1CCC(=O)O` [Example 104], with at most 3.12 µM.
Under `CCc1cc(C[C@@H]2CCCN2C[C@@H](O)CO[C@H](CC)c2cc(F)ccc2CCC(=O)O)ccc1Cl` [Example 105] stands at most 3.16 µM; under `C[C@@H](OC[C@H](O)CN1CCC[C@H]1Cc1ccc(Cl)c(Cl)c1)c1cc(F)cc(F)c1CCC(=O)O` [Example 106], at most 3.1 µM.
Then `CCc1cc(C[C@@H]2CCCN2C[C@@H](O)CO[C@H](C)c2cc(F)cc(F)c2CCC(=O)O)ccc1Cl` [Example 107], with at most 3.14 µM; and `CC[C@@H](OC[C@H](O)CN1CCC[C@H]1Cc1ccc(Cl)c(Cl)c1)c1cccc(F)c1CCC(=O)O` [Example 108], with at most 3.12 µM.
As to `CCc1cc(C[C@@H]2CCCN2C[C@@H](O)CO[C@H](CC)c2cccc(F)c2CCC(=O)O)ccc1Cl` [Example 109], the IC50 is at most 3.16 µM.
For `CC[C@@H](OC[C@H](O)CN1CCC[C@H]1Cc1ccc(Cl)c(Cl)c1)c1cc(F)cc(F)c1CCC(=O)O` [Example 110], the IC50 is at most 3.02 µM.
As for `CCc1cc(C[C@@H]2CCCN2C[C@@H](O)CO[C@H](CC)c2cc(F)cc(F)c2CCC(=O)O)ccc1Cl` [Example 111], the half-inhibitory concentration (IC50) is at most 3.05 µM.
Under `CC[C@@H](OC[C@H](O)CN1CCC[C@H]1Cc1ccc(C)c(F)c1)c1cccc(Cl)c1CCC(=O)O` [Example 112] stands at most 3.25 µM; under `CC[C@@H](OC[C@H](O)CN1CCC[C@H]1Cc1ccc(Cl)c(Cl)c1)c1cccc(Cl)c1CCC(=O)O` [Example 113], at most 3.03 µM.
Under `CCc1cc(C[C@@H]2CCCN2C[C@@H](O)CO[C@H](CC)c2cccc(Cl)c2CCC(=O)O)ccc1Cl` [Example 114] stands at most 3.06 µM.
